The values that follow are results of earlier work, collected in patent US20240062912A1, “METHODS FOR DETERMINING LIVER FUNCTION COMPRISING A MULTI-COMPARTMENTAL MODEL” (HepQuant, LLC, priority 2022, published 2024).

For the data set the following is noted: cited from earlier work.
[1] abbreviates: healthy controls, previous studies.

Each structure is given as a SMILES string.

Turning to `[2H]C1([2H])C[C@@]2(C)[C@H](C[C@@H](O)[C@@H]3[C@@H]2C[C@H](O)[C@]2(C)[C@@H]([C@H](C)CCC(=O)O)CC[C@@H]32)C([2H])([2H])[C@@H]1O` [d4-CA, cholic-acid-2,2,4,4-d4], under “diseased liver”, the SHUNT is reported as 30-90%, the STAT was 0.6 to 5 µM and the “portal HFR (FLOW)” value is 20 to 2 mL/min/kg. For the same compound, under setting [1], the average HFR (FLOW) is 30 mL/min/kg, the “average SHUNT” value is around 20% and the “average STAT value” is given as around 0.4.
